The test system of series [1] is spontaneously hypertensive rats (SHR). Kind of series: Antihypertensive test in spontaneously hypertensive rats (mean blood pressure). It is filed as in vivo, male). The following applies: Rattus norvegicus. The method, then:
(§1) Through a cannula chronically intubated into the abdominal aorta of a male SHR of 20 to 30 weeks after birth, mean blood pressure and heart rate were measured by means of an electronic recording system without anesthesia and restraint. Five rats were employed in one group of SHR. […] At 1, 3, 6 and 24 hours after administration of test samples, blood pressure and heart rate were determined.

The next series in a line: in vivo. The series is classed as in vivo. The following applies: mouse, in vivo; oral, mice, ten mice/group, observed one week. The method, then:
(§2) Ten ICR-strain male mice weighing from 25 to 35 g. were used per one group, after fasting for 6 hours (water was freely taken in). Each test sample was suspended in a 1% tragacanth solution and administered orally at a concentration adjusted so as to give a volume of 40 ml/kg. After administration, feed was given and observation was continued for one week.

The next series relates to ICR-strain male mice. Kind of series: in vivo. The series is classed as in vivo. Particulars: oral, ten mice/group, one week. As for the experimental part: as §2
Series [2] relates to spontaneously hypertensive rats (SHR). The following applies: rat, in vivo, po. The method, then: as §1
Another series deals with α-adrenoceptor. Particulars: known; cited from earlier work.
[3] abbreviates: SHR 3 mg/kg, oral administration, 1 hr, negative = decrease, read-out: Percent decrease in mean blood pressure after administration, 1 hr.
[4] abbreviates: SHR 3 mg/kg, oral administration, 3 hrs, negative = decrease, read-out: Percent decrease in mean blood pressure after administration, 3 hrs.
Where [5] appears, read: SHR 3 mg/kg, oral administration, 6 hrs, negative = decrease, read-out: Percent decrease in mean blood pressure after administration, 6 hrs.
The mark [6] stands for this setting: SHR 3 mg/kg, oral administration, 24 hrs, negative = decrease, read-out: Percent decrease in mean blood pressure after administration, 24 hrs.

Like-named read-outs stand apart in the source and are kept apart here.

As to `COc1cc2nc(N3CCN(C(=O)NC4CCCC4)CC3)nc(N)c2cc1OC` [Compound 3, 2-(4-cyclopentylcarbamoyl-piperazin-1-yl)-4-amino-6,7-dimethoxyquinazoline], the change in vivo at 3 mg/kg in series [1] (setting [3]) is -27.1%; in series [1] (setting [4]) it was -27%; in series [1] (setting [5]) it was -27%; in series [1] (setting [6]) it was -0.3%. The compound further returned a median lethal dose (LD50) at 168 h in the series “in vivo” above 5000 mg/kg. Further, the “Number of dead mouse” value in the series on ICR-strain male mice (2,500 mg/kg) and in the series with ICR-strain male mice (5,000 mg/kg) was 0 throughout.
On to `COc1cc2nc(N3CCN(C(=O)NC4CCCCC4)CC3)nc(N)c2cc1OC` [Compound 4, 2-(4-cyclohexylcarbamoyl-piperazin-1-yl)-4-amino-6,7-dimethoxyquinazoline], for which the change in vivo at 3 mg/kg is -26.8% in series [1] (setting [3]), -26.2% in series [1] (setting [4]), -25.1% in series [1] (setting [5]) and -4.9% in series [1] (setting [6]). The same compound displayed a 50% lethal dose (LD50) at 168 h in “in vivo” above 5000 mg/kg. The “Number of dead mouse” value with ICR-strain male mice (2,500 mg/kg) and with ICR-strain male mice (5,000 mg/kg) was 0 throughout.
Turning to `COc1cc2nc(N3CCN(C(=O)NC4CCCCCC4)CC3)nc(N)c2cc1OC` [Compound 5, 2-(4-cycloheptylcarbamoyl-piperazin-1-yl)-4-amino-6,7-dimethoxyquinazoline], the change in vivo at 3 mg/kg was -18.4% in series [1] (setting [3]), -24.7% in series [1] (setting [4]), -19.2% in series [1] (setting [5]) and -3.7% in series [1] (setting [6]).
As to `COc1cc2nc(N3CCN(C(=O)Nc4ccco4)CC3)nc(N)c2cc1OC` [Compound 6, 2-[4-(furan-2-yl)carbamoyl-piperazin-1-yl]-4-amino-6,7-dimethoxyquinazoline], the change in vivo at 3 mg/kg was -11.9% in series [1] (setting [3]), -14.5% in series [1] (setting [4]), -11.4% in series [1] (setting [5]) and 1% in series [1] (setting [6]).
Regarding `COc1cc2nc(N3CCN(C(=S)NC4CCCCC4)CC3)nc(N)c2cc1OC` [Compound 9, 2-(4-cyclohexylthiocarbamoyl-piperazin-1-yl)-4-amino-6,7-dimethoxyquinazoline], the change in vivo at 3 mg/kg in series [1] (setting [3]) is -19.3%; in series [1] (setting [4]), -22.2%; in series [1] (setting [5]) it was -20.5%; in series [1] (setting [6]) it was -1.3%.
In the case of `COc1cc2nc(N3CCN(C(=O)Nc4ccccc4)CC3)nc(N)c2cc1OC` [Compound 12, 2-(4-phenylcarbamoyl-piperazin-1-yl)-4-amino-6,7-dimethoxyquinazoline], the change in vivo at 3 mg/kg in series [1] (setting [3]) is -13.3%; in series [1] (setting [4]) it was -19.7%; in series [1] (setting [5]) it was -17%; in series [1] (setting [6]), 3.7%. In “in vivo”, this compound registered a median lethal dose (LD50) at 168 h above 5000 mg/kg. The “Number of dead mouse” value in the series with ICR-strain male mice (2,500 mg/kg) and in the series with ICR-strain male mice (5,000 mg/kg) was 0 in each case.
Turning to `COc1cc2nc(N3CCN(C(=O)Nc4ccccc4C)CC3)nc(N)c2cc1OC` [Compound 13, 2-[4-(2-methylphenyl)carbamoyl-piperazin-1-yl]-4-amino-6,7-dimethoxyquinazoline], the change in vivo at 3 mg/kg was -20.2% in series [1] (setting [3]), -17.9% in series [1] (setting [4]), -21.4% in series [1] (setting [5]) and 1.2% in series [1] (setting [6]). For the same compound, in the series “in vivo”, the LD50 at 168 h worked out at 2500 mg/kg. Also, the figures for the “Number of dead mouse” value in the series with ICR-strain male mice (2,500 mg/kg) and with ICR-strain male mice (5,000 mg/kg) were 5 and 10, respectively.
For `COc1cc2nc(N3CCN(C(=O)Nc4ccc(C)cc4)CC3)nc(N)c2cc1OC` [Compound 15, 2-[4-(4-methylphenyl)carbamoyl-piperazin-1-yl]-4-amino-6,7-dimethoxyquinazoline], the change in vivo at 3 mg/kg was -17.1% in series [1] (setting [3]), -18.5% in series [1] (setting [4]), -21.8% in series [1] (setting [5]) and 1.2% in series [1] (setting [6]).
For `COc1cccc(NC(=O)N2CCN(c3nc(N)c4cc(OC)c(OC)cc4n3)CC2)c1` [Compound 18, 2-[4-(3-methoxyphenyl)carbamoyl-piperazin-1-yl]-4-amino-6,7-dimethoxyquinazoline], in that order: -5.9%, -17.2%, -15.9% and 4.6%.
On to `CCOc1ccc(NC(=O)N2CCN(c3nc(N)c4cc(OC)c(OC)cc4n3)CC2)cc1` [Compound 21, 2-[4-(4-ethoxyphenyl)carbamoyl-piperazin-1-yl]-4-amino-6,7-dimethoxyquinazoline], for which the change in vivo at 3 mg/kg is -22.4% in series [1] (setting [3]), -24.5% in series [1] (setting [4]), -27.7% in series [1] (setting [5]) and -6.4% in series [1] (setting [6]). This compound yielded an LD50 at 168 h in “in vivo” above 5000 mg/kg. The “Number of dead mouse” value with ICR-strain male mice (2,500 mg/kg) and in the series with ICR-strain male mice (5,000 mg/kg) was 0 in each case.
`COc1cc2nc(N3CCN(C(=O)Nc4ccccc4F)CC3)nc(N)c2cc1OC` [Compound 25, 2-[4-(2-fluorophenyl)carbamoyl-piperazin-1-yl]-4-amino-6,7-dimethoxyquinazoline]: the change in vivo at 3 mg/kg in series [1] (setting [3]) was -30.3%; in series [1] (setting [4]), -22%; in series [1] (setting [5]), -23.8%; in series [1] (setting [6]), -7.3%. In the series “in vivo”, the 50% lethal dose (LD50) at 168 h was 1870 mg/kg. Besides, the results for the “Number of dead mouse” value in the series on ICR-strain male mice (1,250 mg/kg), with ICR-strain male mice (2,500 mg/kg) and in the series with ICR-strain male mice (5,000 mg/kg) were 3, 7 and 10, respectively.
For the compound `COc1cc2nc(N3CCN(C(=O)Nc4cccc(F)c4)CC3)nc(N)c2cc1OC` [Compound 26, 2-[4-(3-fluorophenyl)carbamoyl-piperazin-1-yl]-4-amino-6,7-dimethoxyquinazoline], the change in vivo at 3 mg/kg in series [1] (setting [3]) was -21.5%; in series [1] (setting [4]), -21.7%; in series [1] (setting [5]), -24.3%; in series [1] (setting [6]), 0%.
For `COc1cc2nc(N3CCN(C(=O)Nc4cccc(Cl)c4)CC3)nc(N)c2cc1OC` [Compound 29, 2-[4-(3-chlorophenyl)carbamoyl-piperazin-1-yl]-4-amino-6,7-dimethoxyquinazoline], the change in vivo at 3 mg/kg in series [1] (setting [3]) was -15.1%; in series [1] (setting [4]), -18.5%; in series [1] (setting [5]), -19.4%; in series [1] (setting [6]), -4.9%.
The corresponding values for `COc1cc2nc(N3CCN(C(=O)Nc4ccc(Cl)cc4C)CC3)nc(N)c2cc1OC` [Compound 34, 2-[4-(2-methyl-4-chlorophenyl)carbamoyl-piperazin-1-yl]-4-amino-6,7-dimethoxyquinazoline] are -12.1%, -19%, -18.2% and -1.2%.
Take `COc1cc2nc(N3CCN(/C(S)=N/c4ccccc4)CC3)nc(N)c2cc1OC` [Compound 35, 2-(4-phenylthiocarbamoyl-piperazin-1-yl)-4-amino-6,7-dimethoxyquinazoline]: the change in vivo at 3 mg/kg in series [1] (setting [3]) is -28%; in series [1] (setting [4]), -20.9%; in series [1] (setting [5]), -24.7%; in series [1] (setting [6]), 0.6%. The LD50 at 168 h in the series “in vivo” is above 5000 mg/kg. In addition, the “Number of dead mouse” value with ICR-strain male mice (2,500 mg/kg) and in the series on ICR-strain male mice (5,000 mg/kg) was 0 throughout.
`COc1cc2nc(N3CCCN(C(=O)Nc4ccccc4)CC3)nc(N)c2cc1OC` [Compound 37, 2-(4-phenylcarbamoyl-homopiperazin-1-yl)-4-amino-6,7-dimethoxyquinazoline]: the change in vivo at 3 mg/kg in series [1] (setting [3]) was -11.7%; in series [1] (setting [4]), -12.8%; in series [1] (setting [5]), -5%; in series [1] (setting [6]), 0%.
Take `COc1cc2nc(N3CCN(C(=O)c4ccco4)CC3)nc(N)c2cc1OC` [Prazosin, 2-[4-(2-furoyl)-piperazin-1-yl]-4-amino-6,7-dimethoxyquinazoline, reference compound]: the change in vivo at 3 mg/kg in series [1] (po, 24 h, read-out: Percent decrease in mean blood pressure after administration, 24 hrs) is -1.7%; in series [1] (setting [3]), -27.9%; in series [1] (setting [4]), -17.3%; in series [1] (setting [5]) it was -19%. For the same compound, the “change in heart rate” value in series [2] is “no significant change”. Further, the “mechanism of antihypertensive activity” value with α-adrenoceptor was “relaxation of peripheral arterioles as a consequence of α-adrenoceptor blockade”.

The LD50 is the dose at which mortality reaches 50%.

The values are drawn from patent publication US4607034A, “Quinazoline derivatives and pharmaceutical composition thereof” (priority 1979, dated 1986).
